# Data from US20170325459A1, “BICYCLIC COMPOUNDS AS PEST CONTROL AGENTS” (Bayer CropScience Aktiengesellschaft, priority 2014, published 2017).
# Assays:
# [1] = log P by HPLC (OECD Guideline 117), method [b] neutral range pH 7.8; format: physicochemical; details: for chromatographic logP: reversed-phase (RP) C18 HPLC column
# Procedure: (§1) The log P values were determined in accordance with OECD Guideline 117 (EC Directive 92/69/EEC) by HPLC (high-performance liquid chromatography) using reversed-phase (RP) columns (C18), by the following methods: [a] The LC-MS determination in the acidic range is carried out at pH 2.7 with 0.1% aqueous formic acid and acetonitrile (contains 0.1% formic acid) as eluents; linear gradient from 10% acetonitrile to 95% acetonitrile. [b] LC-MS determination in the neutral range is effected at pH 7.8 with 0.001 molar aqueous ammonium hydrogencarbonate solution and acetonitrile as eluents; linear gradient from 10% acetonitrile to 95% acetonitrile. Calibration is effected using unbranched alkan-2-ones (having 3 to 16 carbon atoms) with known log P values (log P values determined on the basis of the retention times by linear interpolation between two successive alkanones).
# [2] = log P by HPLC (OECD Guideline 117), method [a] acidic range pH 2.7; format: physicochemical; details: for chromatographic logP: reversed-phase (RP) C18 HPLC column
# Procedure: as §1
# Myzus persicae = Myzus persicae spray test; format: in vivo; details: application rate 500 g/ha, Chinese cabbage leaf discs, after 6 days; for pest or weed control at 500 g/ha: Myzus persicae, foliar, 144 h, read-out: efficacy (aphids killed)
# Procedure: Myzus persicae—Spray Test Solvent: 78 parts by weight of acetone • • 1.5 parts by weight of dimethylformamide Emulsifier: alkylaryl polyglycol ether To produce a suitable active ingredient formulation, 1 part by weight of active ingredient is dissolved using the specified parts by weight of solvent and made up with water containing an emulsifier concentration of 1000 ppm until the desired concentration is attained. To produce further test concentrations, the formulation is diluted with emulsifier-containing water. Discs of Chinese cabbage leaves (Brassica pekinensis) infested by all stages of the green peach aphid (Myzus persicae) are sprayed with an active ingredient formulation of the desired concentration. After 6 days, the efficacy in % is determined. 100% means that all the aphids have been killed and 0% means that none of the aphids have been killed.
Molecule,logP[a] [2],chromatographic logP [2],other results
"5-(Ethylsulphanyl)-4-methyl-2-[2-(pyridin-3-yl)-1,3-benzothiazol-6-yl]-2,4-dihydro-33H-1,2,4-triazol-3-one [compound 52]",2.84,–,logP[b] [1]: 2.97
"Ic1ccc2nc(-c3cccnc3)sc2c1 [I-a-2, 6-Iodo-2-(pyridin-3-yl)-1,3-benzothiazole]",–,3.37,chromatographic logP [1]: 3.39
"CC1(C)OB(c2ccc3nc(-c4cccnc4)sc3c2)OC1(C)C [I-h-1, 2-(Pyridin-3-yl)-6-(4,4,5,5-tetramethyl-1,3,2-dioxaborolan-2-yl)-1,3-benzothiazole]",–,4.03,chromatographic logP [1]: 4.14
c1ccc(-c2ccc3nc(-c4cccnc4)sc3c2)cc1 [compound 1],3.7,–,logP[b] [1]: 3.87
Fc1ccccc1-c1ccc2nc(-c3cccnc3)sc2c1 [compound 5],3.7,–,logP[b] [1]: 3.78
Clc1ccccc1-c1ccc2nc(-c3cccnc3)sc2c1 [compound 6],4.05,–,logP[b] [1]: 4.2
c1cncc(-c2nc3ccc(NCC4CC4)cc3s2)c1 [compound 14],2.5,–,logP[b] [1]: 2.94
"c1cncc(-c2nc3ccc(N4CCOCC4)cc3s2)c1 [compound 15, 6-(Morpholin-4-yl)-2-(pyridin-3-yl)-1,3-benzothiazole]",–,2,chromatographic logP [1]: 2.14
c1ccc(CNc2ccc3nc(-c4cccnc4)sc3c2)cc1 [compound 16],2.91,–,logP[b] [1]: 3.12
CC(Nc1ccc2nc(-c3cccnc3)sc2c1)c1ccccc1 (centres unmarked) [compound 17],–,3.23,chromatographic logP [1]: 3.33
"Cc1cc(C)c([S+]([O-])CC(F)(F)F)cc1Nc1ccc2nc(-c3cccnc3)sc2c1 (centres unmarked) [compound 19, N-{2,4-Dimethyl-5-[(2,2,2-trifluoroethyl)sulphinyl]phenyl}-2-(pyridin-3-yl)-1,3-benzothiazol-6-amine]",–,–,chromatographic logP [1]: 3.07
"Cc1cc(F)c(Nc2ccc3nc(-c4cccnc4)sc3c2)cc1[S+]([O-])CC(F)(F)F (centres unmarked) [compound 21, N-{2-Fluoro-4-methyl-5-[(2,2,2-trifluoroethyl)sulphinyl]phenyl}-2-(pyridin-3-yl)-1,3-benzothiazol-6-amine]",–,2.85,chromatographic logP [1]: 2.9
CCSc1ccccc1Nc1ccc2nc(-c3cccnc3)sc2c1 [compound 22],4.32,–,logP[b] [1]: 4.44
CC[S+]([O-])c1ccccc1Nc1ccc2nc(-c3cccnc3)sc2c1 (centres unmarked) [compound 23],2.25,–,logP[b] [1]: 2.24
"c1ccc(Nc2ccc3nc(-c4cccnc4)sc3c2)nc1 [compound 24, N-(Pyridin-2-yl)-2-(pyridin-3-yl)-1,3-benzothiazol-6-amine]",–,1.04,chromatographic logP [1]: 2.47
c1cncc(-c2nc3ccc(-n4cccn4)cc3s2)c1 [compound 26],–,–,logP[b] [1]: 2.2
"c1cncc(-c2nc3ccc(-n4cncn4)cc3s2)c1 [compound 31, 2-(Pyridin-3-yl)-6-(1H-1,2,4-triazol-1-yl)-1,3-benzothiazole]",–,–,chromatographic logP [1]: 1.63
"O=C(NCC(F)(F)F)c1ccc2nc(-c3cccnc3)sc2c1 [compound 32, 2-(Pyridin-3-yl)-N-(2,2,2-trifluoroethyl)-1,3-benzothiazole-6-carboxamide]",–,1.96,pest or weed control at 500 g/ha (Myzus persicae): 100%
"O=C(NCc1ccccn1)c1ccc2nc(-c3cccnc3)sc2c1 [compound 33, 2-(Pyridin-3-yl)-N-(pyridin-2-ylmethyl)-1,3-benzothiazole-6-carboxamide]",–,1.15,pest or weed control at 500 g/ha (Myzus persicae): 100%
Cn1ccc(-c2ccc3nc(-c4cccnc4)sc3c2)n1 [compound 36],2.05,–,logP[b] [1]: 2.03
"CSCn1cc(-c2ccc3nc(-c4cccnc4)sc3c2)cn1 [compound 38, 6-{1-[(Methylsulphanyl)methyl]-1H-pyrazol-4-yl}-2-(pyridin-3-yl)-1,3-benzothiazole]",–,2.4,chromatographic logP [1]: 2.54
Cn1cncc(-c2ccc3nc(-c4cccnc4)sc3c2)c1=O [compound 43],1.34,–,logP[b] [1]: 1.51
COc1nn(-c2ccc3nc(-c4cccnc4)sc3c2)c(=O)n1C [compound 50],–,–,efficacy (aphids killed) (Myzus persicae): 90%
Cn1c(OCC(F)(F)F)nn(-c2ccc3nc(-c4cccnc4)sc3c2)c1=O [compound 53],2.8,–,logP[b] [1]: 2.88
Cn1c(SCC(F)(F)F)nn(-c2ccc3nc(-c4cccnc4)sc3c2)c1=O [compound 54],2.84,–,logP[b] [1]: 2.91

Molecule,logP[a] [2],chromatographic logP [2],other results
"CSCc1nn(-c2ccc3nc(-c4cccnc4)sc3c2)c(=O)n1C [compound 55, 4-Methyl-5-[(methylsulphanyl)methyl]-2-[2-(pyridin-3-yl)-1,3-benzothiazol-6-yl]-2,4-dihydro-3H-1,2,4-triazol-3-one]",–,2.23,chromatographic logP [1]: 2.36
CNC(=O)c1ccc2nc(-c3cccnc3)sc2c1 [compound 57],1.22,–,efficacy (aphids killed) (Myzus persicae): 100%
CNC(=O)c1ccc2nc(-c3cncc(F)c3)sc2c1 [compound 58],1.67,–,efficacy (aphids killed) (Myzus persicae): 100%
CN(C)C(=O)c1ccc2nc(-c3cccnc3)sc2c1 [compound 59],1.42,–,efficacy (aphids killed) (Myzus persicae): 100%
CN(C)C(=O)c1ccc2nc(-c3cncc(F)c3)sc2c1 [compound 60],1.9,–,efficacy (aphids killed) (Myzus persicae): 100%
CCN(C)C(=O)c1ccc2nc(-c3cccnc3)sc2c1 [compound 61],1.71,–,efficacy (aphids killed) (Myzus persicae): 100%
CCN(C)C(=O)c1ccc2nc(-c3cncc(F)c3)sc2c1 [compound 62],2.2,–,efficacy (aphids killed) (Myzus persicae): 100%
O=C(NCC(F)(F)F)c1ccc2nc(-c3cccnc3)sc2c1 [compound 63],2.02,–,–
O=C(NCC(F)(F)F)c1ccc2nc(-c3cncc(F)c3)sc2c1 [compound 64],2.51,–,efficacy (aphids killed) (Myzus persicae): 90%
CON(C)C(=O)c1ccc2nc(-c3cccnc3)sc2c1 [compound 65],1.64,–,efficacy (aphids killed) (Myzus persicae): 100%
CON(C)C(=O)c1ccc2nc(-c3cncc(F)c3)sc2c1 [compound 66],2.16,–,efficacy (aphids killed) (Myzus persicae): 100%
CC(F)(F)CNC(=O)c1ccc2nc(-c3cncc(F)c3)sc2c1 [compound 68],2.39,–,efficacy (aphids killed) (Myzus persicae): 100%
"CSCCNC(=O)c1ccc2nc(-c3cccnc3)sc2c1 [compound 69, N-[2-(Methylsulphanyl)ethyl]-2-(pyridin-3-yl)-1,3-benzothiazole-6-carboxamide]",–,1.83,pest or weed control at 500 g/ha (Myzus persicae): 90%
CSCCNC(=O)c1ccc2nc(-c3cncc(F)c3)sc2c1 [compound 70],2.31,–,efficacy (aphids killed) (Myzus persicae): 90%
CS(=O)(=O)CCNC(=O)c1ccc2nc(-c3cncc(F)c3)sc2c1 [compound 72],–,–,efficacy (aphids killed) (Myzus persicae): 90%
O=C(Nc1cccc(SC(F)(F)F)c1)c1ccc2nc(-c3cccnc3)sc2c1 [compound 73],3.76,–,–
"O=C(Nc1cccc(SC(F)(F)F)c1)c1ccc2nc(-c3cncc(F)c3)sc2c1 [compound 74, 2-(5-Fluoropyridin-3-yl)-N-{3-[(trifluoromethyl)sulphanyl]phenyl}-1,3-benzothiazole-6-carboxamide]",–,4.29,–
"O=C(Nc1cccc([S+]([O-])C(F)(F)F)c1)c1ccc2nc(-c3cncc(F)c3)sc2c1 (centres unmarked) [compound 75, 2-(5-Fluoropyridin-3-yl)-N-{3-[(trifluoromethyl)sulphinyl]phenyl}-1,3-benzothiazole-6-carboxamide]",–,3.26,–
"CCC(=O)N(C)c1ccc2nc(-c3cccnc3)sc2c1 [compound 76, N-Methyl-N-[2-(pyridin-3-yl)-1,3-benzothiazol-6-yl]propanamide]",–,1.84,–
CN(C(=O)C1CCS(=O)(=O)C1)c1ccc2nc(-c3cncc(F)c3)sc2c1 (centres unmarked) [compound 83],1.94,–,–
CN(C(=O)c1cccc(SC(F)(F)F)c1)c1ccc2nc(-c3cccnc3)sc2c1 [compound 84],3.24,–,–
"CN(C(=O)c1cccc(SC(F)(F)F)c1)c1ccc2nc(-c3cncc(F)c3)sc2c1 [compound 85, N-[2-(5-Fluoropyridin-3-yl)-1,3-benzothiazol-6-yl]-N-methyl-3-[(trifluoromethyl)sulphanyl]benzamide]",–,3.88,–
O=C(Nc1ccc2nc(-c3cccnc3)sc2c1)c1cccc([S+]([O-])C(F)(F)F)c1 (centres unmarked) [compound 86],2.63,–,–
"O=C(Nc1ccc2nc(-c3cncc(F)c3)sc2c1)c1cccc([S+]([O-])C(F)(F)F)c1 (centres unmarked) [compound 87, N-[2-(5-Fluoropyridin-3-yl)-1,3-benzothiazol-6-yl]-3-[(trifluoromethyl)sulphinyl]benzamide]",–,3.27,–
